In patent US5393742A, “Preparation for treating renal disease” (MECT Corporation, priority 1990, dated 1995):
Where two headings read alike, the source gives them in different places.

Experiments:
[1] = test system: Male ddy mice; test: Simplified acute toxicity test of N-acetylneuraminates in mice by intravenous injection; assay type: in vivo
Procedure: Simplified acute toxicity test:
A simplified acute toxicity test of N-acetylneuraminates in mice by intravenous injection was carried out as follows.
Lithium-, potassium-, barium- and magnesium- salts of N-acetylneuraminic acid were used (all were from MECT Corporation).
Body weights at the start of the test: 17.7-21.1 g
The number of animals at each level: 3 mice
(3) Room temperature: 23±1° C. - Humidity: 55±7%
The above-mentioned test compounds were dissolved in physiological saline solution to make a 0.2 ml solution per 20 g of body weight in a mouse as an injection fluid and injected into the tail vein. The doses were 500, 1,000 and 2,000 mg/kg.

[2] = test system: Puromycin aminonucleoside (PAN) induced nephritis; assay type: in vivo, Male Sprague-Dawley (SD) rats
Procedure: Effect on Puromycin aminonucleoside (PAN) induced nephritis, i.e. PAN induced nephrosis or nephrotic syndrome:
Male Sprague-Dawley (SD) rats weighing 160-180 g were used.
As the nephritis, i.e. nephrosis or nephrotic syndrome, causing substance, PAN (made by Sigma Co., Ltd.) was used. As the test compound, sodium N-acetylneuraminate (made by MECT Corporation) was used.
PAN was intraperitoneally administered in an amount of 80 mg per 1 kg of body weight to rats to cause nephritis, i.e. nephrosis or nephrotic syndrome. Then, the test compound (Groups I, II or III) or physiological saline solution (Group IV) was intraperitoneally administered 3 times a day (morning, noon and evening) for 14 consecutive days immediately after treatment with PAN as follows. As a positive control, methylprednisolone was subcutaneously administered to rats of Group V once a day (noon) for 14 consecutive days immediately after treatment with PAN. Moreover, 3, 6, 9 and 13 days after treatment with PAN, 5 ml water was loaded, and the urine was collected for 6 hours. Fourteen days after treatment with PAN, autopsies were made, the kidneys were extirpated and their moist weights were measured.
Group I: 0.1 mg Sodium N-acetylneuraminate per 1 kg of body weight was administered.
Group II: 0.5 mg Sodium N-acetylneuraminate per 1 kg of body weight was administered.
Group III: 1.0 mg Sodium N-acetylneuraminate per 1 kg of body weight was administered.
Group IV: 2.5 ml Physiological saline solution per 1 kg of body weight was administered.
Group V: 2 mg Methylprednisolone per 1 kg of body weight was administered.
Group VI: Normal rats (no drug was given).
Regarding the results of therapeutic effect for treating renal disease (nephrotic syndrome) of the given NANA compound per Example 1 above, it will be appreciated that the test compound sodium N-acetylneuraminate (Groups I, II and III) was dissolved in physiological saline and intraperitoneally administered, compared to intraperitoneal administration of physiological saline alone (Group IV) and subcutaneous administration of methylprednisolone (Group V).

[3] = 2.0 mg/kg s.c., once a day, 14 days after PAN, positive control

**Q.** How did the “The number of deaths per day course” value ([1]; 500 mg/kg i.v., 1 hrs) turn out when `CC(=O)N[C@H]1[C@H]([C@H](O)[C@H](O)CO)OC(O)(C(=O)[O-])C[C@@H]1O.[K+]` (stereo partly drawn) [Potassium N-acetylneuraminate] was run?
**A.** 0

**Q.** What about the “The number of deaths per day course” value ([1]; 500 mg/kg i.v., 3 hrs) of the same compound?
**A.** 0

**Q.** And the “The number of deaths per day course” value ([1]; 500 mg/kg i.v., 6 hrs)?
**A.** 0

**Q.** What about the “The number of deaths per day course” value ([1]; 500 mg/kg i.v., 24 hrs) of the same compound?
**A.** 0

**Q.** And the “The number of deaths per day course” value ([1]; 500 mg/kg i.v., 2 days)?
**A.** 0

**Q.** And the “The number of deaths per day course” value ([1]; 500 mg/kg i.v., 3 days)?
**A.** 0

**Q.** And the “The number of deaths per day course” value ([1]; 500 mg/kg i.v., 4 days)?
**A.** 0

**Q.** And the “The number of deaths per day course” value ([1]; 500 mg/kg i.v., 5 days)?
**A.** 0

**Q.** What about the “The number of deaths per day course” value ([1]; 500 mg/kg i.v., 6 days) of the same compound?
**A.** 0

**Q.** What about the “Final Lethality” value ([1]; 500 mg/kg i.v., 7 days) of the same compound?
**A.** 0/3

**Q.** And the “The number of deaths per day course” value ([1]; 500 mg/kg i.v., 7 days)?
**A.** 0

**Q.** And the “Final Lethality” value ([1]; 1000 mg/kg i.v., 7 days)?
**A.** 3/3

**Q.** What about the “The number of deaths per day course” value ([1]; 1000 mg/kg i.v., 7 days) of the same compound?
**A.** 0

**Q.** And the “The number of deaths per day course” value ([1]; 1000 mg/kg i.v., 1 hrs)?
**A.** 3

**Q.** And the “The number of deaths per day course” value ([1]; 1000 mg/kg i.v., 3 hrs)?
**A.** 0

**Q.** And the “The number of deaths per day course” value ([1]; 1000 mg/kg i.v., 6 hrs)?
**A.** 0

**Q.** What about the “The number of deaths per day course” value ([1]; 1000 mg/kg i.v., 24 hrs) of the same compound?
**A.** 0

**Q.** What about the “The number of deaths per day course” value ([1]; 1000 mg/kg i.v., 2 days) of the same compound?
**A.** 0

**Q.** What about the “The number of deaths per day course” value ([1]; 1000 mg/kg i.v., 3 days) of the same compound?
**A.** 0

**Q.** What about the “The number of deaths per day course” value ([1]; 1000 mg/kg i.v., 4 days) of the same compound?
**A.** 0

**Q.** What about the “The number of deaths per day course” value ([1]; 1000 mg/kg i.v., 5 days) of the same compound?
**A.** 0

**Q.** And the “The number of deaths per day course” value ([1]; 1000 mg/kg i.v., 6 days)?
**A.** 0

**Q.** What about the “Final Lethality” value ([1]; 2000 mg/kg i.v., 7 days) of the same compound?
**A.** 3/3

**Q.** What about the “The number of deaths per day course” value ([1]; 2000 mg/kg i.v., 7 days) of the same compound?
**A.** 0

**Q.** And the “The number of deaths per day course” value ([1]; 2000 mg/kg i.v., 1 hrs)?
**A.** 3

**Q.** And the “The number of deaths per day course” value ([1]; 2000 mg/kg i.v., 3 hrs)?
**A.** 0

**Q.** What about the “The number of deaths per day course” value ([1]; 2000 mg/kg i.v., 6 hrs) of the same compound?
**A.** 0

**Q.** And the “The number of deaths per day course” value ([1]; 2000 mg/kg i.v., 24 hrs)?
**A.** 0

**Q.** What about the “The number of deaths per day course” value ([1]; 2000 mg/kg i.v., 2 days) of the same compound?
**A.** 0

**Q.** What about the “The number of deaths per day course” value ([1]; 2000 mg/kg i.v., 3 days) of the same compound?
**A.** 0

**Q.** And the “The number of deaths per day course” value ([1]; 2000 mg/kg i.v., 4 days)?
**A.** 0

**Q.** And the “The number of deaths per day course” value ([1]; 2000 mg/kg i.v., 5 days)?
**A.** 0

**Q.** And the “The number of deaths per day course” value ([1]; 2000 mg/kg i.v., 6 days)?
**A.** 0

**Q.** What about the “Deaths (in words)” value ([1]; 1,000 and 2,000 mg/kg i.v.) of the same compound?
**A.** all of the 3 mice died

**Q.** What does the source list for `CC(=O)N[C@H]1[C@H]([C@H](O)[C@H](O)CO)OC(O)(C(=O)O)C[C@@H]1O` (stereo partly drawn) [Barium N-acetylneuraminate]?
**A.** Deaths (in words) ([1]; 500 mg/kg i.v.): all 3 of the 3 mice; The number of deaths per day course ([1]; 500 mg/kg i.v., 1 hrs): 3; The number of deaths per day course ([1]; 500 mg/kg i.v., 3 hrs): 0; The number of deaths per day course ([1]; 500 mg/kg i.v., 6 hrs): 0; The number of deaths per day course ([1]; 500 mg/kg i.v., 24 hrs): 0; The number of deaths per day course ([1]; 500 mg/kg i.v., 2 days): 0; The number of deaths per day course ([1]; 500 mg/kg i.v., 3 days): 0; The number of deaths per day course ([1]; 500 mg/kg i.v., 4 days): 0; The number of deaths per day course ([1]; 500 mg/kg i.v., 5 days): 0; The number of deaths per day course ([1]; 500 mg/kg i.v., 6 days): 0; Final Lethality ([1]; 500 mg/kg i.v., 7 days): 3/3; The number of deaths per day course ([1]; 500 mg/kg i.v., 7 days): 0; Final Lethality ([1]; 1000 mg/kg i.v., 7 days): 3/3; The number of deaths per day course ([1]; 1000 mg/kg i.v., 7 days): 0; The number of deaths per day course ([1]; 1000 mg/kg i.v., 1 hrs): 3; The number of deaths per day course ([1]; 1000 mg/kg i.v., 3 hrs): 0; The number of deaths per day course ([1]; 1000 mg/kg i.v., 6 hrs): 0; The number of deaths per day course ([1]; 1000 mg/kg i.v., 24 hrs): 0; The number of deaths per day course ([1]; 1000 mg/kg i.v., 2 days): 0; The number of deaths per day course ([1]; 1000 mg/kg i.v., 3 days): 0; The number of deaths per day course ([1]; 1000 mg/kg i.v., 4 days): 0; The number of deaths per day course ([1]; 1000 mg/kg i.v., 5 days): 0; The number of deaths per day course ([1]; 1000 mg/kg i.v., 6 days): 0; Final Lethality ([1]; 2000 mg/kg i.v., 7 days): 3/3; The number of deaths per day course ([1]; 2000 mg/kg i.v., 7 days): 0; The number of deaths per day course ([1]; 2000 mg/kg i.v., 1 hrs): 3; The number of deaths per day course ([1]; 2000 mg/kg i.v., 3 hrs): 0; The number of deaths per day course ([1]; 2000 mg/kg i.v., 6 hrs): 0; The number of deaths per day course ([1]; 2000 mg/kg i.v., 24 hrs): 0; The number of deaths per day course ([1]; 2000 mg/kg i.v., 2 days): 0; The number of deaths per day course ([1]; 2000 mg/kg i.v., 3 days): 0; The number of deaths per day course ([1]; 2000 mg/kg i.v., 4 days): 0; The number of deaths per day course ([1]; 2000 mg/kg i.v., 5 days): 0; The number of deaths per day course ([1]; 2000 mg/kg i.v., 6 days): 0; Deaths (in words) ([1]; 1,000 and 2,000 mg/kg i.v.): all of the 3 mice died

**Q.** With `C[C@H]1C[C@@H]2[C@H]([C@@H](O)C[C@@]3(C)[C@H]2CC[C@]3(O)C(=O)CO)[C@@]2(C)C=CC(=O)C=C12` [Methylprednisolone, methylprednisolone, reference compound] as the compound, how does the “Kidney Moist Weight” value [2, 3] read?
**A.** 0.43 ± 0.01 g/100 g

**Q.** And the “Weight Gain Rate” value [2, 3]?
**A.** 107.7 ± 1.6%

**Q.** And the “Urinary Protein Content” value ([2]; 3rd Day, 2.0 mg/kg s.c., once a day)?
**A.** 22.3 ± 2.1 mg/24 hours

**Q.** And the “Urinary Protein Content” value ([2]; 6th Day, 2.0 mg/kg s.c., once a day)?
**A.** 55.8 ± 11.4 mg/24 hours

**Q.** And the “Urinary Protein Content” value ([2]; 9th Day, 2.0 mg/kg s.c., once a day)?
**A.** 68.7 ± 13.1 mg/24 hours

**Q.** What about the “Urinary Protein Content” value ([2]; 13th Day, 2.0 mg/kg s.c., once a day) of the same compound?
**A.** 56.1 ± 12.5 mg/24 hours

**Q.** And the “Effect on weight gain (in words)” value ([2]; PAN rats, 14 days)?
**A.** greater inhibition of weight gain

**Q.** And the “Effect on increase in urinary protein content (in words)” value ([2]; PAN rats, 6th, 9th and 13th day)?
**A.** inhibits increase in urinary protein content

**Q.** And the “Systemic side effect (in words)” value ([2]; rat, in vivo)?
**A.** greater systemic side effect
